Laboratory results reported in US20070088052A1, “Sulfonamide derivatives as 5ht7 receptor antagonists” (Aston University, priority 2003, published 2007).
Marks after values point to notes of the source that are not given here.

Columns and labels:
5-HT7 receptor = target: T1, 5-HT7 receptor (Homo sapiens, UniProt P34969); assay: Receptor binding assay, [3]H-5-CT; details: for 5HT-7 receptor binding data using [3]H-5-CT: stepwise screen from 10 μM, active samples diluted and re-screened, radioligand 25 pM, dropout < 35; for IC50: [3]H-5-CT binding
T1 construct: Tissues were homogenized in ice cold sucrose; from tissue; host or cells: unspecified tissue, membrane homogenate
Protocol: Receptor Binding Assay, ^[3]H-5-CT
The combinatorial library was screened using radiolabeled 5-carboxamidotryptamine, a selective 5-HT-7 agonist. Tissues were homogenized in ice cold sucrose (0.32 M, 25 ml) for 15 strokes at 500 rpm and centrifuged at 13000 rpm for 10 mins. The supernatant was re-centrifuged at 13000 rpm for 20 mins. The resulting pellet was re-dispersed to the required volume of buffer at 500 rpm and stored in aliquots at […].
Binding was achieved using radioligand 5-carboxamidotryptamine at 25 pM. The samples were incubated {with membranes (0.1 mg/ml)} in 20 mM Hepes, 1 mM EGTA, 5 mM MgCl2, 150 mM NaCl, at pH 6.5 for 2 hrs at RT and then centrifuged at 11000 rpm for 5 minutes. The membrane pellets were washed twice with water and the bound radioactivity was measured in a Packard Cobra Auto-gamma counter (B5005). All binding assays were carried out with SB-258719 as standard. Controls (no compound) were also added. All samples were made in duplicate and repeated twice. All compounds were initially screened for percentage inhibition at 10 μM. Samples showing an average inhibition of […] were diluted to 1 μM and re-screened and if active diluted again.

mice [1] = assay: Tail suspension test; assay type: in vivo; details: interperitoneal 30 min prior, immobility over 5 minutes
Protocol: Male mice weighting 20-25 g were used preferentially. The were housed in plastic cages for at least 10 days prior to testing in a 12 hours light cycle with food and water freely available.
Animals were transported from the housing room to the testing area in their own cages and were allowed to adapt to the new environment for 1 hour before testing. Groups of 6 animals were treated with the test compounds or the vehicle by interperitoneal injection 30 min prior to testing. For the test the mice were suspended on the edge of a shelf 58 cm above a table top by adhesive tape, placed approximately 1 cm from the tip of the tail. The duration of immobility was recorded for a period of 5 minutes. Mice were considered immobile when they hang passively and the time was recorded.

mice [2] = assay: Despair swim test (immobility time test); assay type: in vivo; details: immobility in 5 min test, drug one hour prior
Text: Despair Swim Test (Immobility Time Test)
This reflects a state of despair, which can be reduced by several agents, which are therapeutically effective in human depression. Antidepressant drugs have the effect of reducing the duration of immobility.
Mice were brought into the laboratory at least one day before the experiment and were housed in separate cages, with free access to food and water. The mice were individually forced to swim inside a vertical Plexiglas cylinder (height: 40 cm; diameter: 18 cm, containing 15 cm of water maintained at 30° C.). After 10 min in the water the mice were removed and allowed to dry in a heated enclosure (32° C.) before being returned to their home cages. They were again replaced in the cylinder 24 hrs later and the total duration of the immobility was measured during a 5 min test. Floating behaviour during this 5 min period was reproducible in different groups of mice. An animal was judged to be immobile whenever it remained floating passively in the water in a slightly hunched but upright position, its nose just above the surface. The test drug or the standard were administered one hour prior to testing.

T1 sequence (P34969 whole entry): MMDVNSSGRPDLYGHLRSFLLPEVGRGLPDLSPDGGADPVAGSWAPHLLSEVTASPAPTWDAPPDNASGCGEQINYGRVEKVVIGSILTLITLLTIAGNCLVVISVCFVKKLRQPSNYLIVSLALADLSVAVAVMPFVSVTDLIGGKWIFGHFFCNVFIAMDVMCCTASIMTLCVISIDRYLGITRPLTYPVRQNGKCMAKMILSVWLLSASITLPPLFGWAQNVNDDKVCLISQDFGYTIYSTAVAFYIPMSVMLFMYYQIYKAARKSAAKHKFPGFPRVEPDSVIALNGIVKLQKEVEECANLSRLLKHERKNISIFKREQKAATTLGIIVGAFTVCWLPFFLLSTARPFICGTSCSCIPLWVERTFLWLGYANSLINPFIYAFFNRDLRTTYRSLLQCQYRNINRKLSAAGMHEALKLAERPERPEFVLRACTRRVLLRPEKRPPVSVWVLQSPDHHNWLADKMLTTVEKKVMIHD

SMILES | 5HT-7 receptor binding data using [3]H-5-CT (5-HT7 receptor) | further results
Cc1cccc(S(=O)(=O)N(CCN(C)C)C(C)CCN2CCC(C)CC2)c1 (centres unmarked) [B9] | B9 * (1 micromolar) | –
COc1ccccc1N(C(C)CCN1CCC(C)CC1)S(=O)(=O)c1cccc(C)c1 (centres unmarked) [B16] | B16 ** (100 nM) | –
COc1cccc(N(C(C)CCN2CCC(C)CC2)S(=O)(=O)c2cccc(C)c2)c1 (centres unmarked) [B23] | B23 *** (10 nM) | –
COc1ccc(S(=O)(=O)N(c2ccc(Cl)cc2)C(C)CCN2CCC(C)CC2)cc1 (centres unmarked) [C6] | C6 ** (100 nM) | –
COc1ccc(S(=O)(=O)N(c2cccc3ccccc23)C(C)CCN2CCC(C)CC2)cc1 (centres unmarked) [C24] | C24 * (1 micromolar) | –
CC1CCN(CCC(C)N(Cc2ccccc2)S(=O)(=O)c2cccc3ccccc23)CC1 (centres unmarked) [D1] | D1 * (1 micromolar) | –
CC1CCN(CCC(C)N(c2ccccn2)S(=O)(=O)c2cccc3ccccc23)CC1 (centres unmarked) [D13] | D13 ** (100 nM) | –
COc1cccc(N(C(C)CCN2CCC(C)CC2)S(=O)(=O)c2cccc3ccccc23)c1 (centres unmarked) [D23] | D23 *** (10 nM) | IC50 (5-HT7 receptor): 34 nM
CC1CCN(CCC(C)N(Cc2ccccc2)S(=O)(=O)c2ccc3ccccc3c2)CC1 (centres unmarked) [E1] | E1 * (1 micromolar) | –
COCCN(C(C)CCN1CCC(C)CC1)S(=O)(=O)c1ccc2ccccc2c1 (centres unmarked) [E3] | E3 * (1 micromolar) | –
CCCCCCCCCCCCN(C(C)CCN1CCC(C)CC1)S(=O)(=O)Cc1ccccc1 (centres unmarked) [G10] | G10 * (1 micromolar) | –
CC(=O)c1ccc(N(C(C)CCN2CCC(C)CC2)S(=O)(=O)Cc2ccccc2)cc1 (centres unmarked) [G22] | G22 * (1 micromolar) | –
COc1cccc(N(C(C)CCN2CCC(C)CC2)S(=O)(=O)Cc2ccccc2)c1 (centres unmarked) [G23] | G23 *** (10 nM) | –
CC1CCN(CCC(C)N(c2cccc3ccccc23)S(=O)(=O)Cc2ccccc2)CC1 (centres unmarked) [G24] | G24 * (1 micromolar) | –
CC1CCN(CCC(C)N(Cc2ccccc2)S(=O)(=O)c2cccc([N+](=O)[O-])c2)CC1 (centres unmarked) [I1] | I1 ** (100 nM) | –
CC1CCN(CCC(C)N(C)S(=O)(=O)c2cccc([N+](=O)[O-])c2)CC1 (centres unmarked) [I8] | I8 ** (100 nM) | –
CC1CCN(CCC(C)N(c2ccccc2)S(=O)(=O)c2cccc([N+](=O)[O-])c2)CC1 (centres unmarked) [I21] | I21 ** (100 nM) | –
COc1cccc(N(C(C)CCN2CCC(C)CC2)S(=O)(=O)c2cccc([N+](=O)[O-])c2)c1 (centres unmarked) [I23] | I23 ** (100 nM) | –
CC1CCN(CCC(C)N(c2cccc3ccccc23)S(=O)(=O)c2cccc([N+](=O)[O-])c2)CC1 (centres unmarked) [I24] | I24 *** (10 nM) | –
Cc1ccc(N(C(C)CCN2CCC(C)CC2)S(=O)(=O)c2ccc(-c3ccccc3)cc2)cc1 (centres unmarked) [J20] | J20 *** (10 nM) | Tail suspension (mice [1]; 1 mg/kg): 130 ± 11 s; Tail suspension (mice [1]; 5 mg/kg): 92 ± 9 s; Forced swim test (mice [2]; 1 mg/kg): 42 ± 6 s; Forced swim test (mice [2]; 5 mg/kg): 28 ± 4 s; IC50 (5-HT7 receptor): 61 nM
COc1cccc(N(C(C)CCN2CCC(C)CC2)S(=O)(=O)c2ccc(-c3ccccc3)cc2)c1 (centres unmarked) [J23] | J23 *** (10 nM) | IC50 (5-HT7 receptor): 39 nM
CC1CCN(CCC(C)N(CCN(C)C)S(=O)(=O)c2ccc(Br)cc2)CC1 (centres unmarked) [M9] | M9 * (1 micromolar) | –
COCCN(C(C)CCN1CCC(C)CC1)S(=O)(=O)c1cccc(C(F)(F)F)c1 (centres unmarked) [N3] | N3 ** (100 nM) | –
COc1ccccc1N(C(C)CCN1CCC(C)CC1)S(=O)(=O)c1cccc(C(F)(F)F)c1 (centres unmarked) [N16] | N16 ** (100 nM) | –
Cc1ccc(N(C(C)CCN2CCC(C)CC2)S(=O)(=O)c2cccc(C(F)(F)F)c2)cc1 (centres unmarked) [N20] | N20 ** (100 nM) | –
COc1ccc(S(=O)(=O)N(c2cccc3ccccc23)C(C)CCN2CCC(C)CC2)cc1OC (centres unmarked) [O24] | O24 *** (10 nM) | Tail suspension (mice [1]; 1 mg/kg): 81 ± 8 s; Tail suspension (mice [1]; 5 mg/kg): 74 ± 9 s; Forced swim test (mice [2]; 1 mg/kg): 69 ± 7 s; Forced swim test (mice [2]; 5 mg/kg): 51 ± 11 s; IC50 (5-HT7 receptor): 83 nM
